Measured values: patent US20090018111A1, “Novel Antimicrobial Medicament” (priority 2004, published 2009)
Where two headings read alike, the source gives them in different places.

Key:
Assay in all cases: Sensitivity test (agar dilution)
[1] = test system: S. maltophilia IID1275; type: cell-based, Stenotrophomonas maltophilia; conditions: Stenotrophomonas maltophilia, S. maltophilia IID1275
Experimental: (§1) The antibacterial activities were tested against various 18 bacteria (27 standard strains) which are representative bacteria caused clinically infectious disease (Staphylococcus aureus 3 strains, Staphylococcus epidermidis 1 strain, Micrococcus luteus 1 strain, Streptococcus pyogenes 1 strain, Enterococcus faecalis 1 strain, Enterococcus faecium 1 strain, Bacillus subtilis 1 strain, Escherichia coli 3 strains, Klebsiella pneumoniae 1 strain, Proteus mirabilis 1 strain, Proteus vulgaris 2 strains, Pseudomonas aeruginosa 3 strains, Serratia marcescens 2 strains, Enterobacter aerogenes 1 strain, Stenotrophomonas maltophilia 1 strain, Enterobacter cloacae 1 strain, Citrobacter freundii 1 strain, Moraxella catarrhalis 2 strains).
(§2) According to the standard method of Japan Chemotherapeutic Society (Chemotherapy, vol. […], p 76-79 (1981)) the test was carried out using the agar dilution method. After dissolving test samples in distilled water, agar medium containing the test samples was prepared in such a manner that the final concentration became twice serial dilution by pouring serially diluted combination drug solution or a single drug solution into agar medium. As agar medium was used Mueller Hinton Agar medium (MHA). Then, each strain was cultivated over night at 37° C. in an incubator and suspended in buffered saline solution with gelatin (BSG) in the concentration of about 10^6 CFU/ml. The suspension (about 5 μl) containing test strains was inoculated to the medium containing the test samples by Micro Planter.
(§3) When the sample is subjected to sensitivity test, this mixed solution was diluted by twice serial dilution method.
(§4) Furthermore, when the drug is solely used, each test sample was used as it is, and diluted by twice serial dilution method from the maximum concentration to the minimum concentration.
(§5) FIC index based on MIC value was calculated. […] Namely, when FIC index calculated by the following formula is equal or less than 1, the enhanced effect of the combination drug in said ratio is considered as positive. When FIC index is over 1, the enhanced effect of the combination drug in said ratio is considered as negative.
(§6) Formula of FIC index: FIC index=(MIC of Drug A in combination/MIC of Drug A alone)+(MIC of Drug B in combination/MIC of Drug B alone) N.C. in tables means being not calculated.

[2] = test system: Str. pyogenes Cook; type: cell-based, Streptococcus pyogenes; conditions: Streptococcus pyogenes, Str. pyogenes Cook
Experimental: as §1, §2, §3, §4, §5, §6

[3] = test system: E. aerogenes ATCC13048; type: cell-based, Enterobacter aerogenes; conditions: Klebsiella aerogenes, E. aerogenes ATCC13048
Experimental: as §1, §2, §3, §4, §5, §6

[4] = test system: S. aureus 209P; type: cell-based, Staphylococcus aureus; conditions: Staphylococcus aureus, 209P, S. aureus 209P
Experimental: as §1, §2, §3, §4, §5, §6

[5] = test system: S. aureus SP-7928 (homo-MRSA); type: cell-based, Staphylococcus aureus; conditions: Staphylococcus aureus, MRSA, S. aureus SP-7928 (homo-MRSA)
Experimental: as §1, §2, §3, §4, §5, §6

[6] = test system: S. aureus MS94088 (hetero-MRSA); type: cell-based, Staphylococcus aureus; conditions: Staphylococcus aureus, MRSA, S. aureus MS94088 (hetero-MRSA)
Experimental: as §1, §2, §3, §4, §5, §6

[7] = test system: E. faecium ATCC19434; type: cell-based, Enterococcus faecium; conditions: Enterococcus faecium, E. faecium ATCC19434
Experimental: as §1, §2, §3, §4, §5, §6

[8] = test system: K. pneumoniae ATCC10031; type: cell-based, Klebsiella pneumoniae; conditions: Klebsiella pneumoniae, K. pneumoniae ATCC10031
Experimental: as §1, §2, §3, §4, §5, §6

[9] = test system: P. vurgalis OX-19; type: cell-based, Proteus vulgaris; conditions: Proteus vulgaris, P. vurgalis OX-19
Experimental: as §1, §2, §3, §4, §5, §6

[10] = test system: P. vulgaris GN7919; type: cell-based, Proteus vulgaris; conditions: Proteus vulgaris, P. vulgaris GN7919
Experimental: as §1, §2, §3, §4, §5, §6

[11] = test system: B. subtilis ATCC6633; type: cell-based, Bacillus subtilis; conditions: Bacillus subtilis, B. subtilis ATCC6633
Experimental: as §1, §2, §3, §4, §5, §6

[12] = test system: M. luteus ATCC9341; type: cell-based, Micrococcus luteus; conditions: Micrococcus luteus, M. luteus ATCC9341
Experimental: as §1, §2, §3, §4, §5, §6

[13] = test system: E. coli NIHJ JC-2; type: cell-based, Escherichia coli; conditions: Escherichia coli, E. coli NIHJ JC-2
Experimental: as §1, §2, §3, §4, §5, §6

[14] = Concomitant (DRPM:SM = 1:1), read-out: MIC concomitant
[15] = drug alone, read-out: MIC alone

SMILES: C[C@@H](O)[C@H]1C(=O)N2C(C(=O)O)=C(S[C@@H]3CN[C@H](CNS(N)(=O)=O)C3)[C@H](C)[C@H]12 [DRPM, doripenem]
- MIC ([1]; IID1275, Concomitant (DRPM:SM = 1:1), read-out: MIC concomitant): > 32 µg/mL
- MIC ([1]; IID1275, drug alone, read-out: MIC alone): > 32 µg/mL
- MIC [2, 14]: ≤ 0.002 µg/mL
- MIC [2, 15]: ≤ 0.002 µg/mL
- MIC ([3]; ATCC13048, Concomitant (DRPM:SM = 1:1), read-out: MIC concomitant): 0.031 µg/mL
- MIC ([3]; ATCC13048, drug alone, read-out: MIC alone): 0.031 µg/mL
- MIC [4, 14]: 0.004 µg/mL
- MIC [4, 15]: 0.016 µg/mL
- MIC [5, 14]: 1 µg/mL
- MIC [5, 15]: 32 µg/mL
- MIC [6, 14]: 0.25 µg/mL
- MIC [6, 15]: 2 µg/mL
- MIC ([7]; ATCC19434, Concomitant (DRPM:SM = 1:1), read-out: MIC concomitant): 0.25 µg/mL
- MIC ([7]; ATCC19434, drug alone, read-out: MIC alone): 8 µg/mL
- MIC ([8]; ATCC10031, Concomitant (DRPM:SM = 1:1), read-out: MIC concomitant): 0.008 µg/mL
- MIC ([8]; ATCC10031, drug alone, read-out: MIC alone): 0.016 µg/mL
- MIC ([9]; OX19, Concomitant (DRPM:SM = 1:1), read-out: MIC concomitant): 0.031 µg/mL
- MIC ([9]; OX19, drug alone, read-out: MIC alone): 0.031 µg/mL
- MIC ([10]; GN7919, Concomitant (DRPM:SM = 1:1), read-out: MIC concomitant): 0.063 µg/mL
- MIC ([10]; GN7919, drug alone, read-out: MIC alone): 0.125 µg/mL
- MIC ([11]; ATCC6633, Concomitant (DRPM:SM = 1:1), read-out: MIC concomitant): ≤ 0.002 µg/mL
- MIC ([11]; ATCC6633, drug alone, read-out: MIC alone): 0.008 µg/mL
- MIC ([12]; ATCC9341, Concomitant (DRPM:SM = 1:1), read-out: MIC concomitant): ≤ 0.002 µg/mL
- MIC ([12]; ATCC9341, drug alone, read-out: MIC alone): 0.031 µg/mL
- MIC ([13]; NIHJJC2, Concomitant (DRPM:SM = 1:1), read-out: MIC concomitant): 0.016 µg/mL
- MIC ([13]; NIHJJC2, drug alone, read-out: MIC alone): 0.016 µg/mL
